Measured values taken from patent US12122741B2, “Therapeutic phenethylamine compositions and methods of use” (CYBIN IRL LIMITED, priority 2020, dated 2024).

Tests used:
[1] = molecular target: T1, human serotonin 5-HT2A receptor (Homo sapiens, UniProt P28223); assay: radioligand competition binding, [3H]Ketanserin; conditions: HEK293 membranes, [3H]Ketanserin ~1.6 nM
T1 construct: host or cells: HEK293 (ATCC CRL-1573), transient transfection, membrane preparation
Protocol: Radioligand competition binding was performed as previously described (Saraf, T. S., Felsing, D. E., Armstrong, J. L., Booth, R. G., and Canal, C. E., 2021, Evaluation of lorcaserin as an anticonvulsant in juvenile Fmr1 knockout mice, Epilepsy Res 175, 106677), with minor modifications. Plasmids encoding human serotonin 5-HT2A receptor cDNA were procured from the cDNA Resource Center. Human embryonic kidney cells (HEK293, ATCC CRL-1573) were grown in a cell incubator in 100 mm dishes with antibiotic-free Dulbecco's modified Eagle's medium containing 10% fetal bovine serum. Cells were transfected at ˜85% confluency with […] cDNA using TransIT-2020 reagent (Mirus Bio, Madison, Wisconsin). After approximately 48 hours, cell membrane was collected via centrifugation. For all experiments, serotonin (5-HT) hydrochloride was used as a positive control, and mianserin hydrochloride (10 μM) was used to define non-specific binding. Each cell membrane homogenate expressing 5-HT2A receptors was incubated in 96-well plates with [^3H]Ketanserin (PerkinElmer, Waltham, Massachusetts), ˜1.6 nM (its Kd at human 5-HT2A receptors), in the absence or presence of test compounds in a buffer. Following equilibration, each sample was filtered rapidly under vacuum through fiberglass filters presoaked in a buffer and rinsed several times with an ice-cold buffer using a cell harvester. Filters were soaked with scintillation fluid, and counts per minute were detected using photodetectors. IC50 values were computed using nonlinear, least squares regression analyses and then converted to Ki values using the Cheng-Prusoff equation (GraphPad Prism 9.0, San Diego, California).

[2] = molecular target: T2, serotonin 5-HT2A receptor (Mus musculus, UniProt P35363); assay: head-twitch response (HTR); type: in vivo, C57Bl/6J mice; conditions: for HTR compared to DOI (positive control, 1 mg/kg) / HTR compared to vehicle: HTRs counted for 15 minutes, adult male mice; for model fit of data (GraphPad Prism 9): FIG. 16 legend
T2 construct: tissue Jackson Laboratory; host or cells: living C57Bl/6J mice (whole animal, behavioural read-out)
Protocol: The HTR assay was performed in adult, male C57Bl/6J mice, procured from the Jackson Laboratory (Bar Harbor, Maine), as previously described (Canal, C. E., and Morgan, D., 2012, Head-twitch response in rodents induced by the hallucinogen 2,5-dimethoxy-4-iodoamphetamine: a comprehensive history, a re-evaluation of mechanisms, and its utility as a model, Drug Test Anal 4, 556-576; Saraf, T. S., Felsing, D. E., Armstrong, J. L., Booth, R. G., and Canal, C. E., 2021, Evaluation of lorcaserin as an anticonvulsant in juvenile Fmr1 knockout mice, Epilepsy Res 175, 106677). Mice were housed in standard laboratory cages with ad libitum access to food and water, and were acclimated to the vivarium for at least one week prior to testing in a procedure room. On the day of testing, mice were acclimated to the procedure room in their home cages for ≥60 mi before administration of test compounds. Mice were injected subcutaneously, placed immediately thereafter in a clear, polycarbonate box (46×20×20 cm), and HTRs were counted for 15 consecutive minutes, using hand-held tally counters, by two trained observers who were blind to treatment.

[3] = in vitro liver metabolism (metabolic stability); type: in vitro ADME; conditions: rat liver microsomes, NADPH regenerating system, 0 to 60 min
Protocol: In Vitro Liver Metabolism and Kinetic Deuterium Isotope Effects Compounds (10 μl of 2 μM solution) are incubated in 200 μl of medium that contains […] rat liver microsomes, NADPH regenerating system (1 mM NADP, 1 unit/ml of isocitrate dehydrogenase, 5 mM isocitric acid, 5 mM magnesium chloride), and 25 mM of phosphate buffer (pH 7.4). The reaction is terminated at different time points (0 to 60 min) by the addition of 300 μl of acetonitrile. For the analyses of products, the precipitated salts and proteins are spun out on a centrifuge, the residual solution diluted with 300 μl of water and injected into the LC/MS (Agilent 1200 system interfaced with an ABS Sciex 4000 QTRAP LC/MS/MS Mass Spectrometer). The metabolic stability may be estimated by evaluating the rate of disappearance of the main parent peak.

[4] = cited from earlier work

T2 sequence (P35363 whole entry): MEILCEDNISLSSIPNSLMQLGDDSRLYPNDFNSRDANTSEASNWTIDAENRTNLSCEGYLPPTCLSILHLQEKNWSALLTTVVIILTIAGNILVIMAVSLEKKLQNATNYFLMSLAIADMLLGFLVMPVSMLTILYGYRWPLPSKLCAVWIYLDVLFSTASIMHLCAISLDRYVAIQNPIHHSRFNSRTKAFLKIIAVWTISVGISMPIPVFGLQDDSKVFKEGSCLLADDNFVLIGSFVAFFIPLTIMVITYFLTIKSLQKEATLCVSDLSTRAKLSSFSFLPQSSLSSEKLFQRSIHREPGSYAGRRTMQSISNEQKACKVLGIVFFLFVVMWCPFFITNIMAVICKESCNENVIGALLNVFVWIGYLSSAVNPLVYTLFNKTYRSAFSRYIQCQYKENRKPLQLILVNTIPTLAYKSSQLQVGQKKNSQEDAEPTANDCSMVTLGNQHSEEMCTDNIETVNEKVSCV
T1 sequence (P28223 whole entry): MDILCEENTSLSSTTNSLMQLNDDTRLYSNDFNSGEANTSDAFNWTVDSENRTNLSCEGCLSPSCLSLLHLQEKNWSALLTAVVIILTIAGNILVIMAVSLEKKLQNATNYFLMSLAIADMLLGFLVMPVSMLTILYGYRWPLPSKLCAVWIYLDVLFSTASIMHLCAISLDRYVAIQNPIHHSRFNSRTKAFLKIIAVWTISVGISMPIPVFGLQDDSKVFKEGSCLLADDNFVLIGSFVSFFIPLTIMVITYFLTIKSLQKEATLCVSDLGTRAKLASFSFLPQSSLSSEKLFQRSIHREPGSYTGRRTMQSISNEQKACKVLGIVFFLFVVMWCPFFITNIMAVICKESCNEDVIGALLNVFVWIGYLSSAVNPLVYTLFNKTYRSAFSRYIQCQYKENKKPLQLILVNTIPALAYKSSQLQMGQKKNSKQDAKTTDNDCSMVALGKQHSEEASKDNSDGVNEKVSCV

Row | Compound | activity at serotonin 5-HT2A receptors (FIG. 17) [1] | difference in affinity between deuterated and non-deuterated compounds [1] | HTR compared to DOI (positive control, 1 mg/kg) ([2]; 3 mg/kg, subcutaneous) | HTR compared to vehicle ([2]; 3 mg/kg, subcutaneous) | model fit of data (GraphPad Prism 9) [2] | half life longer than Reference Compound 2 (2C—B) [3] | effect of deuteration of the 2,5-methoxy groups on HTR (versus Compound I-1) ([2]; 3 mg/kg, subcutaneous, 15 minutes) | activity after oral administration [4]
1 | COc1cc(SC(F)(F)F)c(OC)cc1CCN [Compound I-1, 2-(2,5-dimethoxy-4-((trifluoromethyl)thio)phenyl)ethan-1-amine] | pronounced agonists | no significant differences in affinity | not statistically different from DOI | statistically different from vehicle | fit best to a two-site model |  |  | 
2 | [2H]C([2H])([2H])Oc1cc(C([2H])([2H])C([2H])([2H])N)c(OC([2H])([2H])[2H])cc1Br [Compound II-14, 2-(4-bromo-2,5-bis(methoxy-d3)phenyl)ethan-1,1,2,2-d4-1-amine] |  |  |  |  |  | 50% |  | 
3 | [2H]C([2H])([2H])Oc1cc(SC(F)(F)F)c(OC([2H])([2H])[2H])cc1CCN [Compound II-10, 2-(2,5-bis(methoxy-d3)-4-((trifluoromethyl)thio)phenyl)ethan-1-amine] | pronounced agonists | no significant differences in affinity | not statistically different from DOI | statistically different from vehicle | fit best to a two-site model |  | increased the HTR response | 
4 | COc1cc(OC)c(OC)cc1CCN [2C—O] |  |  |  |  |  |  |  | inactive
